Measured values published in patent publication US6838414B2, “Substituted aryl sulphonyl(thio)ureas used as herbicides” (Bayer Aktiengesellschaft, priority 1996, dated 2005).

What was measured:
Type in all cases: in vivo
Sorghum = experiment: Pre-emergence test/greenhouse; conditions: after three weeks
Procedure: (§1) To produce a suitable preparation of active compound, 1 part by weight of active compound is mixed with the stated amount of solvent, the stated amount of emulsifier is added and the concentrate is diluted with water to the desired concentration.
(§2) Seeds of the test plants are sown in normal soil. After about 24 hours, the soil is sprayed with the preparation of the active compound. Advantageously, the amount of water per unit area is kept constant. The active compound concentration in the preparation is not important, only the active compound application rate per unit area is critical.
(§3) After three weeks, the degree of damage to the plants is rated in % damage in comparison with the development of the untreated control.
(§4) The figures denote: • 0%=no effect (like untreated control) • 100%=total destruction

Alopecurus [1] = experiment: Pre-emergence test/greenhouse; conditions: after three weeks
Procedure: as §1, §2, §3, §4

Stellaria = experiment: Pre-emergence test/greenhouse; conditions: after three weeks
Procedure: as §1, §2, §3, §4

Amaranthus = experiment: Pre-emergence test/greenhouse; conditions: after three weeks
Procedure: as §1, §2, §3, §4

Lolium = experiment: Pre-emergence test/greenhouse; conditions: after three weeks
Procedure: as §1, §2, §3, §4

Chenopodium = experiment: Pre-emergence test/greenhouse; conditions: after three weeks
Procedure: as §1, §2, §3, §4

Alopecurus [2] = experiment: Post-emergence test/greenhouse; conditions: rated after three weeks vs untreated control
Procedure: as §1
(§5) Test plants which have a height of 5-15 cm are sprayed with the preparation of the active compound in such a way as to apply the particular amounts of active compound desired per unit area. The concentration of the spray liquor is chosen so that the amounts of active compound desired in each case are applied in 1000 l of water/ha.
as §3, §4

weeds [3] = experiment: Post-emergence test/greenhouse
Procedure: as §1, §5, §3, §4

Echinochloa = experiment: Post-emergence test/greenhouse; conditions: rated after three weeks vs untreated control
Procedure: as §1, §5, §3, §4

Abutilon = experiment: Post-emergence test/greenhouse; conditions: rated after three weeks vs untreated control
Procedure: as §1, §5, §3, §4

Matricaria = experiment: Post-emergence test/greenhouse; conditions: rated after three weeks vs untreated control
Procedure: as §1, §5, §3, §4

weeds [4] = experiment: Pre-emergence test (overall statement); conditions: application rates between 30 g and 125 g of a.i. per hectare
Procedure: as §1, §2, §3, §4

[5] = application rate 30 g of ai./ha
[6] = application rate 60 g of ai./ha

Row | Compound | Sorghum, % damage (Sorghum; 60 g of ai./ha) [%] | Alopecurus, % damage (Alopecurus [1]; 60 g of ai./ha) [%] | Steltaria, % damage (Stellaria; 60 g of ai./ha) [%] | Amaranthus, % damage (Amaranthus; 60 g of ai./ha) [%] | Lolium, % damage (Lolium; 60 g of ai./ha) [%] | Chenopodium, % damage (Chenopodium; 60 g of ai./ha) [%] | degree of damage to the plants, Alopecurus (Alopecurus [2]; [5]) [%] | activity against weeds (weeds [3]) | degree of damage to the plants, Echinochloa (Echinochloa; [5]) [%] | degree of damage to the plants, Abutilon (Abutilon; [5]) [%] | degree of damage to the plants, Matricaria (Matricaria; [5]) [%] | activity against weeds (weeds [4]) | Sorghum, % damage (Sorghum; 30 g of ai./ha) [%] | Alopecurus, % damage (Alopecurus [1]; 30 g of ai./ha) [%] | Steltaria, % damage (Stellaria; 30 g of ai./ha) [%] | Amaranthus, % damage (Amaranthus; 30 g of ai./ha) [%] | Lolium, % damage (Lolium; 30 g of ai./ha) [%] | Chenopodium, % damage (Chenopodium; 30 g of ai./ha) [%] | degree of damage to the plants, Alopecurus (Alopecurus [2]; [6]) [%] | degree of damage to the plants, Echinochloa (Echinochloa; [6]) [%] | also measured
1 | CCOc1cccc(C(F)(F)F)c1S(=O)(=O)NC(=O)Nc1nc(OC)nc(OC)n1 [Example 7] | 100 | 100 | 95 | 95 | 95 | 100 | 95 | very strong activity against weeds | 95 | 95 | 100 | very strong activity against weeds |  |  |  |  |  |  |  |  | 
2 | CCCOc1cccc(C(F)(F)F)c1S(=O)(=O)NC(=O)Nc1nc(C)nc(OC)n1 [Example 9] |  |  |  |  |  |  |  | very strong activity against weeds |  |  |  | very strong activity against weeds | 90 | 100 | 100 | 100 | 100 | 100 |  |  | degree of damage to the plants, Alopecurus (Alopecurus [2]; application rate 8 g of ai./ha): 90%; degree of damage to the plants, Echinochloa (Echinochloa; application rate 8 g of ai./ha): 80%; degree of damage to the plants, Abutilon (Abutilon; application rate 8 g of ai./ha): 100%; degree of damage to the plants, Matricaria (Matricaria; application rate 8 g of ai./ha): 95%
3 | COc1nc(C)nc(NC(=O)NS(=O)(=O)c2c(OC(C)C)cccc2C(F)(F)F)n1 [Example 12] |  |  |  |  |  |  | 95 | very strong activity against weeds | 90 | 95 | 100 | very strong activity against weeds | 100 | 100 | 100 | 100 | 100 | 95 |  |  | 
4 | COc1cc(Cl)nc(NC(=O)NS(=O)(=O)c2c(OC)cccc2C(F)(F)F)n1 [Example 15] | 95 | 100 | 95 | 95 | 95 | 100 |  | very strong activity against weeds |  |  |  | very strong activity against weeds |  |  |  |  |  |  | 70 | 90 | degree of damage to the plants, Abutilon (Abutilon; [6]): 95%; degree of damage to the plants, Matricaria (Matricaria; [6]): 100%
5 | CCOc1cccc(C)c1S(=O)(=O)NC(=O)Nc1nc(C)cc(OC)n1 [Example 27] | 100 | 100 | 100 | 100 | 100 | 100 |  | very strong activity against weeds |  |  |  | very strong activity against weeds |  |  |  |  |  |  | 95 | 95 | degree of damage to the plants, Abutilon (Abutilon; [6]): 100%; degree of damage to the plants, Matricaria (Matricaria; [6]): 90%
6 | CCOc1cccc(C)c1S(=O)(=O)NC(=O)Nc1nc(OC)nc(OC)n1 [Example 31] | 90 | 95 | 95 | 95 | 100 | 100 |  | very strong activity against weeds |  |  |  | very strong activity against weeds |  |  |  |  |  |  | 80 | 80 | degree of damage to the plants, Abutilon (Abutilon; [6]): 100%; degree of damage to the plants, Matricaria (Matricaria; [6]): 100%
7 | CCOc1cccc(C)c1S(=O)(=O)NC(=O)Nc1nc(C)nc(OC)n1 [Example 32] | 95 | 95 | 100 | 100 | 100 | 100 |  | very strong activity against weeds |  |  |  | very strong activity against weeds |  |  |  |  |  |  | 70 | 90 | degree of damage to the plants, Abutilon (Abutilon; [6]): 100%; degree of damage to the plants, Matricaria (Matricaria; [6]): 100%
8 | COc1nc(NC(=O)NS(=O)(=O)c2c(C)cccc2OC(C)C)nc(OC)n1 [Example 38] |  |  |  |  |  |  | 60 | very strong activity against weeds | 70 | 95 | 95 | very strong activity against weeds | 100 | 100 | 100 | 80 | 100 | 100 |  |  | 
9 | COc1nc(NC(=O)NS(=O)(=O)c2c(C)cccc2OC(C)C)nc(OC)n1 [Example 39] |  |  |  |  |  |  | 90 | very strong activity against weeds | 95 | 100 | 100 | very strong activity against weeds | 100 | 100 | 100 | 100 | 100 | 100 |  |  | 
10 | COc1nc(C)nc(NC(=O)NS(=O)(=O)c2c(C)cccc2OC)n1 [Example 40] |  |  |  |  |  |  | 100 | very strong activity against weeds | 95 | 95 | 100 | very strong activity against weeds | 100 | 100 | 100 | 100 | 100 | 100 |  |  | 
11 | COc1cccc(C)c1S(=O)(=O)NC(=O)Nc1nc(C)cc(C)n1 [Example 41] |  |  |  |  |  |  | 60 | very strong activity against weeds | 95 | 90 | 70 | very strong activity against weeds | 100 | 95 | 80 | 60 | 100 | 100 |  |  | 
12 | COc1cc(C)nc(NC(=O)NS(=O)(=O)c2c(C)cccc2OC)n1 [Example 43] |  |  |  |  |  |  | 60 | very strong activity against weeds | 95 | 100 | 100 | very strong activity against weeds | 100 | 100 | 100 | 100 | 100 | 100 |  |  | 
